Data: patent publication US20140315876A1, “BETA-LACTAMASE INHIBITORS” (priority 2013, published 2014)
Structures can show the parent of a compound that is named as a salt.

Experiments:
[1] = test system: bacterial strains that express KPC β-lactamases; assay: Synergy MIC / standard BLI potentiation MIC assay, strains expressing KPC β-lactamases; assay type: cell-based; details: more active for at least one KPC strain and/or better spectrum of activity than Avibactam; in the presence of a β-lactam
In short: (§1)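 Broth microdilution in CAMHB per CLSI, ~10^5 CFU/mL, 18-20 h at 37° C; MIC is lowest concentration with no visible turbidity. Potentiation: β-lactam 128-0.13 μg/mL with BLI fixed at 4 μg/mL. Synergy: BLI serially diluted with β-lactam fixed. Engineered E. coli kept on 25 μg/mL tetracycline.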

[2] = test system: bacterial strains that express the class D cephalosporinase OXA-15; assay: Synergy MIC / standard BLI potentiation MIC assay, strains expressing OXA-15; assay type: cell-based, E. coli; details: in the presence of a β-lactam; comparator Avibactam (comparator compound CCC)
In short: as §1

SMILES | activity and/or spectrum of activity against bacterial strains that express KPC β-lactamases, compared with Avibactam [1] | activity against bacterial strains that express the class D cephalosporinase OXA-15, compared with Avibactam [2]
O=C1N2C[C@@H](CC[C@H]2c2nnc(C3CCNCC3)o2)N1OS(=O)(=O)O [Compound 711, (2S,5R)-7-oxo-2-(5-(piperidin-4-yl)-1,3,4-oxadiazol-2-yl)-1,6-diazabicyclo[3.2.1]octan-6-yl hydrogen sulfate] | more active than Avibactam | more active than Avibactam
N[C@@H]1CN[C@H](c2nnc([C@@H]3CC[C@@H]4CN3C(=O)N4OS(=O)(=O)O)o2)C1 [Compound 760, (2S,5R)-2-(5-((2S,4S)-4-aminopyrrolidin-2-yl)-1,3,4-oxadiazol-2-yl)-7-oxo-1,6-diazabicyclo[3.2.1]octan-6-yl hydrogen sulfate] | more active than Avibactam | more active than Avibactam
O=C1N2C[C@@H](CC[C@H]2c2nnc(COC3CNC3)o2)N1OS(=O)(=O)O [Compound 744, (2S,5R)-2-(5-((azetidin-3-yloxy)methyl)-1,3,4-oxadiazol-2-yl)-7-oxo-1,6-diazabicyclo[3.2.1]octan-6-yl hydrogen sulfate] | more active than Avibactam | more active than Avibactam
NC1(Cc2nnc([C@@H]3CC[C@@H]4CN3C(=O)N4OS(=O)(=O)O)o2)CC1 [Compound 724, (2S,5R)-2-(5-((1-aminocyclopropyl)methyl)-1,3,4-oxadiazol-2-yl)-7-oxo-1,6-diazabicyclo[3.2.1]octan-6-yl hydrogen sulfate] | more active than Avibactam | more active than Avibactam
O=C1N2C[C@@H](CC[C@H]2c2nnc([C@H]3[C@@H]4CNC[C@@H]43)o2)N1OS(=O)(=O)O [Compound 740, (2S,5R)-2-(5-(3-azabicyclo[3.1.0]hexan-6-yl)-1,3,4-oxadiazol-2-yl)-7-oxo-1,6-diazabicyclo[3.2.1]octan-6-yl hydrogen sulfate] | more active than Avibactam | more active than Avibactam
C[n+]1ccc(-c2nnc([C@@H]3CC[C@@H]4CN3C(=O)N4OS(=O)(=O)[O-])o2)cc1 [Compound 782, (2S,5R)-2-(5-(1-methylpyridin-1-ium-4-yl)-1,3,4-oxadiazol-2-yl)-7-oxo-1,6-diazabicyclo[3.2.1]octan-6-yl sulfate] | more active than Avibactam | more active than Avibactam
O=C1N2C[C@@H](CC[C@H]2c2nnc(CN[C@H]3CCNC3)o2)N1OS(=O)(=O)O [Compound 765, (2S,5R)-7-oxo-2-(5-(((S)-pyrrolidin-3-ylamino)methyl)-1,3,4-oxadiazol-2-yl)-1,6-diazabicyclo[3.2.1]octan-6-yl hydrogen sulfate] | more active than Avibactam | more active than Avibactam
O=C1N2C[C@@H](CC[C@H]2c2nnc([C@H]3CNCCN3)o2)N1OS(=O)(=O)O [Compound 779, (2S,5R)-7-oxo-2-(5-((R)-piperazin-2-yl)-1,3,4-oxadiazol-2-yl)-1,6-diazabicyclo[3.2.1]octan-6-yl hydrogen sulfate] | more active than Avibactam | more active than Avibactam
